Test results: US4204879A, “Amino acid salts of anionic dyestuffs which have high solubility in organic solvents” (Williams (Hounslow) Limited, priority 1976, dated 1980)

Assay: Maximum concentration of dye giving a solution stable for 24 hours at room temperature (Tables 2 and 3)
Format: physicochemical
Protocol: The solubility values given in these Tables are the maximum concentration of dye in grams/liter giving a solution stable for 24 hours at room temperature.

[1] = Table 2, 24 hours, room temperature, salts of 1:2 chromium complex of 2-amino-4-nitrophenol→3-methyl-1-phenyl-5-pyrazolone

| Substance | Solubility in Acetone (acetone, 24 h) [g.1^-1] | Solubility in Ethanol (24 h) [g.1^-1] | Solubility in Ethyl Acetate (ethyl acetate, 24 h) [g.1^-1] | Solubility in Acetone [1] [g.1^-1] | Solubility in Ethyl Acetate [1] [g.1^-1] |
| --- | --- | --- | --- | --- | --- |
| 2-ethylhexylamine | > 100 | 30 | < 5 |  |  |
| N-phenylglycine | > 100 | 50 | 100 |  |  |
| aniline |  |  |  | 25 | < 5 |
| iso-tridecylamine | > 500 | 200 | < 50 |  |  |
